According to patent US20100022626A1, “Modulators of cell migration and methods of identifying same” (priority 2005, published 2010):

System: H1299 cells
Experiment: Phagokinetic track (PKT) assay of H1299 cells treated with cytoskeletal drugs
Type: cell-based
Settings: for Track area: 4 μM Latrunculin A, 2.5 μM Nocodazole or 100 ng/ml PMA, 5 h total; for Track area / Axis ratio / Effective velocity / Major axis / Migration velocity / Minor axis / Perimeter / Roughness / Solidity: mean ± SD; for Effect on cell motility (montage images, FIG. 6): Latrunculin A 4 μM, Nocadazole 2.5 μM, PMA 100 ng/ml; for PKT area compared to control cells: Latrunculin/Nocodazole p=~0, PMA p<0.05; for Axis ratio / Effective velocity / Major axis / Migration velocity / Minor axis / Perimeter / Roughness / Solidity: same treatments
Experimental: Preparation of 96-wellplates: Glass-bottom 96-well plates (Cat. # 7706-2370, Whatmann, Inc., Clifton, N.J., USA) were treated for 2 hours at room temperature with 50 μl of 10 μg/ml fibronectin solution dissolved in PBS (Fibronectin, F-1141; Sigma Chemical Co., St Louis, Mo., USA). The wells were then washed twice with PBS and coated with 340 nm diameter white polystyrene latex beads (Product no. 2-300; batch no. 1344); Interfacial Dynamics Corporation-Molecular Probes Microspheres Technologies, USA. The bead suspension (3.2 ml) was centrifuged for 5 minutes at 20,800×g, and resuspended in 4 ml PBS by vortex, until all visible bead clumps were dispersed. The sedimentation procedure was then repeated, after which the beads were resuspended in 7 ml PBS, to a final concentration of […]. Aliquots of 70 μl of the bead suspension were added to each well, pre-coated with fibronectin, in the 96-well plate, and incubated at 37° C. for 2 hours, followed by gentle washing (×5 times) with PBS using a plate washer (Colombus Plus, Tecan, Switzerland). Before cells were plated, the PBS was replaced with 50 μl culture medium suitable for the particular cell type used in the assay (see FIG. 1).
Cell preparation for the phagokinetic track assay: MCF7 (ATCC-HTB-22), MDA-MB-231 (ATCC-HBT-26), and B16-F10 (ATCC-CRL-6475) cells were grown in Dulbeco's Modified Eagle's Medium (DMEM). H1299 cells (ATCC-CRL-5803) were grown in RPMI-1640. Both culture media were supplemented with 10% FCS, 2 mM glutamine, 100 international units/ml penicillin and 100 μg/ml streptomycin (Biological Industries, Beit Haemek, Israel), and placed in a 5% CO2 humidified incubator kept at 37° C. For the PKT assay, 200-400 cells (a 50 μl volume) were cultured in each well. Depending on the track dimensions, the number of the plated cells was calibrated to maximize the number of single cell tracks, yet minimize the number of intersecting tracks.
Phagokinetic track assay: In order to characterize the motile behavior of the various cell lines, MCF7, MDA-MB-231, B16-F10 and H1299 cells were plated on a monolayer of polystyrene beads. All were incubated at 37° C., 5% CO2 for 7 hours, except for the H1299 cells, which were incubated for 5 hours. The first three cell lines were grown in DMEM, and H1299 cells were grown in RPMI 1640 medium, Both media were supplemented with 10% FCS and penicillin/streptomycin antibiotic. At the end of the incubation period, cells were fixed with 3% PFA. Images were taken with a 10× objective, using the autofocus screening microscope system.
Automated microscopy: Commercially-available plates display large deviations from a plane, often exceeding 200 μm, which require adjustment of the focal plane for every image. Commonly-used autofocusing procedures, which are based on finding the highest contrast image among a focal series, are slow and not robust, particularly when low-contrast images, such as those yielded by a monolayer of micro-beads, are used. The phagokinetic tracks were therefore recorded using a cell-screening microscope described in detail (Paran et al., Methods in Enzymology, in press). The rapid, automated collection of sharp, in-focus PKT images was aided by a laser autofocus device (Liron et al., 2006, J Microsc 221, 145-51). The laser autofocus device enables precise location of the substrate surface, and guarantees sharp definition of track boundaries.
The microscope operating program and the image acquisition software was written (In-house) as an application within the UCSF Priism environment (http://msg.ucsf.edu/ive). The microscope includes a computer-controlled plate scanning stage (Prior, Cambridge UK) that defines the pattern of coverage of the well area by the individual images. For this application, images were taken using a 10×/0.4 objective, and adjacent fields were stitched together, forming a montage of the entire well, or any desired fraction of the well area. […]

| Structure (SMILES) | Track area | Effect on cell motility (montage images, FIG. 6) (in words) | Axis ratio compared to control cells (in words) | Migration velocity compared to control cells (in words) | Roughness compared to control cells (in words) | PKT area compared to control cells (in words) | Axis ratio | Effective velocity | Major axis | Migration velocity | Minor axis | Perimeter | Roughness | Solidity | Effective velocity compared to control cells (in words) | Major axis compared to control cells (in words) | Minor axis compared to control cells (in words) | Solidity compared to control cells (in words, p<0.05) |
| --- | --- | --- | --- | --- | --- | --- | --- | --- | --- | --- | --- | --- | --- | --- | --- | --- | --- | --- |
| C/C1=C/C(=O)O[C@@H]2C[C@@H](CC[C@H](C)/C=C\C=C\CC1)O[C@@](O)([C@@H]1CSC(=O)N1)C2 [Latrunculin A] | 5900 ± 3500 μm^2 | inhibited cell motility | reduced | reduced | decreased | reduced | 1.5 ± 0.4 | 8 ± 5 μm/h | 121 ± 44 μm | 10 ± 6 μm/h | 79 ± 19 μm | 380 ± 150 μm | 2.0 ± 0.7 | 0.9 ± 0.07 |  |  |  |  |
| CCCCCCCCCCCCCC(=O)O[C@@H]1[C@@H](C)[C@@]2(O)[C@@H](C=C(CO)C[C@]3(O)C(=O)C(C)=C[C@@H]23)[C@@H]2C(C)(C)[C@]12OC(C)=O [PMA, Phorbol 12-mirysyate 13-acetate] | 14300 ± 9100 μm^2 | increase in cell motility | did not significantly differ | increased | increased | increased | 2.1 ± 0.9 | 46 ± 21 μm/h | 220 ± 104 μm | 59 ± 26 μm/h | 108 ± 42 μm | 695 ± 350 μm | 2.9 ± 1.4 | 0.8 ± 0.1 | did not significantly differ | did not significantly differ | did not significantly differ | increased |
| COC(=O)Nc1nc2ccc(C(=O)c3cccs3)cc2[nH]1 [Nocodazole] | 6100 ± 3600 μm^2 | inhibited cell motility | reduced | reduced | decreased | reduced | 1.6 ± 0.4 | 14 ± 8 μm/h | 123 ± 43 μm | 17 ± 11 μm/h | 78 ± 18 μm | 385 ± 140 μm | 2.1 ± 0.9 | 0.9 ± 0.07 |  |  |  |  |
